These results are taken from article PMC6544370 (Nature, 2019).

Structures are written as SMILES.

In this experiment the target is Lp-CdnE02 (CD-NTase057) (Legionella pneumophila, UniProt P0DSP3).
Sequence of Lp-CdnE02 (CD-NTase057) (P0DSP3 whole entry, looked up): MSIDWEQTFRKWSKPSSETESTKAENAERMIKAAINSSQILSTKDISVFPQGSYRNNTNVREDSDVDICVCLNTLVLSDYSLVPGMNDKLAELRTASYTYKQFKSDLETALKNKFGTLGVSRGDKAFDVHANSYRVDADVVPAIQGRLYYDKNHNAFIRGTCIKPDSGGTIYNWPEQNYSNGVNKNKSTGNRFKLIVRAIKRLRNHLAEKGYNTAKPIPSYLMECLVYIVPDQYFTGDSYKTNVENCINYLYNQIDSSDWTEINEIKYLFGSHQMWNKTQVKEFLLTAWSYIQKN

Turning to `O=c1ccn([C@@H]2O[C@H](COP(=O)(O)OP(=O)(O)OP(=O)(O)O)[C@@H](O)[C@H]2O)c(=O)[nH]1` [UTP], the “radiolabelled NTP, TLC and mass spectrometry” value is listed as “Lp-CdnE02 synthesized predominantly c-di-UMP”.
